Reference: patent US20240199647A1, “ANTI-VIRAL COMPOUNDS” (Aligos Therapeutics, Inc., priority 2022, published 2024)
Read-outs that look alike come from different tables or passages of the source.

Legend:
[1] = target: SARS-Cov-2 3CLpro (Severe acute respiratory syndrome coronavirus 2, UniProt P0DTD1); test: biochemical; details: Table A, class symbols, read-out: SARS-Cov-2 (IC50)
[2] = test system: human beta-coronavirus OC43; test: OC43 Coronavirus Assay in HeLa cells (antiviral, cytopathic effect, cell-titer-glo); type: cell-based; details: Betacoronavirus 1, OC43, HeLa, Table B; OC43 coronavirus in HeLa cells, class symbols; read-out: EC50
[3] = test system: SARS-CoV-2 B.1.1.7 lineage; test: microbe, parasite or virus in culture; type: cell-based
[4] = in vitro; details: human
[5] = Cytotoxicity in HeLa cells without addition of OC43 virus (in parallel); details: human, HeLa cells, without OC43 virus
[6] = Severe acute respiratory syndrome coronavirus 2, Table C, SARS-CoV-2 B.1.1.7 in A549-dual_ACE2_TMPRSS2 cells, class symbols, read-out: A549-dual_ACE2_TMPRSS2 (EC50)
[7] = Severe acute respiratory syndrome coronavirus 2, Table C, SARS-CoV-2 B.1.1.7 in A549-dual_ACE2_TMPRSS2 cells, cells given as a bound, read-out: A549-dual_ACE2_TMPRSS2 (EC50)

Row | SMILES | IC50 [1] [µM] | EC50 [2] [µM] | EC50 [3, 6] [µM] | CC50 [4] [µM] | CC50 at 6 days [5] [µM] | EC50 ([3]; Severe acute respiratory syndrome coronavirus 2, read-out: A549-dual_ACE2_TMPRSS2 (EC50)) [µM] | EC50 [3, 7] [µM]
1 | CC(C)C[C@@H](C(=O)N1C[C@@]2(C[C@H]1C#N)N=C(c1ccccc1)NC2=O)N(C)C(=O)[C@H](C)NC(=O)C(F)(F)F [Compound 12, (2S)—N-[(2S)-1-[(5R,8S)-8-cyano-4-oxo-2-phenyl-1,3,7-triazaspiro[4.4]non-1-en-7-yl]-4-methyl-1-oxopentan-2-yl]-N-methyl-2-(2,2,2-trifluoroacetamido)propanamide] | 0.02 to 0.2 | 1 to 10 | 1 to 10 | > 1 | > 10 | – | –
2 | CC(C)C[C@@H](C(=O)N1C[C@@]2(C[C@H]1C#N)CC1(CC1)NC2=O)N(C)C(=O)[C@H](C)NC(=O)C(F)(F)F [Compound 13, (S)—N—((S)-1-((5R,8S)-8-cyano-10-oxo-7,11-diazadispiro[2.1.4^5.2^3]undecan-7-yl)-4-methyl-1-oxopentan-2-yl)-N-methyl-2-(2,2,2-trifluoroacetamido)propanamide] | < 0.02 | 0.1 to 1 | – | > 1 | > 10 | 0.1 to 1 | –
3 | CN(C(=O)[C@H](CC1CC1)NC(=O)C(F)(F)F)[C@@H](CC1CC1)C(=O)N1C[C@@]2(C[C@H]1C#N)Oc1ccc(F)cc1NC2=O [Compound 15, (S)—N—((S)-1-((2R,5'S)-5′-cyano-6-fluoro-3-oxo-3,4-dihydrospiro[benzo[b][1,4]oxazine-2,3′-pyrrolidin]-1′-yl)-3-cyclopropyl-1-oxopropan-2-yl)-3-cyclopropyl-N-methyl-2-(2,2,2-trifluoroacetamido)propanamide] | < 0.02 | < 0.1 | < 0.1 | > 1 | > 10 | – | –
4 | CC(C)C[C@@H](C(=O)N1C[C@@]2(C[C@H]1C#N)N=C(C1CC1)NC2=O)N(C)C(=O)[C@H](C)NC(=O)C(F)(F)F [Compound 16] | 0.02 to 0.2 | 0.1 to 1 | – | > 1 | > 10 | – | > 1
5 | CC1=N[C@@]2(C[C@@H](C#N)N(C(=O)[C@H](CC(C)C)N(C)C(=O)[C@H](C)NC(=O)C(F)(F)F)C2)C(=O)N1 [Compound 18] | 0.02 to 0.2 | 1 to 10 | – | > 1 | > 10 | – | > 1
6 | CC(C)C[C@@H](C(=O)N1C[C@@]2(C[C@H]1C#N)CC1(CCCC1)NC2=O)N(C)C(=O)[C@H](C)NC(=O)C(F)(F)F [Compound 19] | 0.02 to 0.2 | 0.1 to 1 | 0.1 to 1 | > 1 | > 10 | – | –
7 | CC(C)C[C@@H](C(=O)N1C[C@]2(CCC3(CC3)NC2=O)C[C@H]1C#N)N(C)C(=O)[C@H](C)NC(=O)C(F)(F)F [Compound 20] | 0.02 to 0.2 | 1 to 10 | 0.1 to 1 | > 1 | > 10 | – | –
8 | CC(C)C[C@@H](C(=O)N1C[C@]2(CC(C)NC2=O)C[C@H]1C#N)N(C)C(=O)[C@H](C)NC(=O)C(F)(F)F (stereo partly drawn) [Compound 21, (2S)—N-((2S)-1-((3S,5S)-3-cyano-8-methyl-6-oxo-2,7-diazaspiro[4.4]nonan-2-yl)-4-methyl-1-oxopentan-2-yl)-N-methyl-2-(2,2,2-trifluoroacetamido)propanamide] | < 0.02 | 0.1 to 1 | 0.1 to 1 | > 1 | > 10 | – | –
9 | CC(C)C[C@@H](C(=O)N1C[C@@]2(C[C@H]1C#N)CC(C)(C)NC2=O)N(C)C(=O)[C@H](C)NC(=O)C(F)(F)F [Compound 22] | 0.02 to 0.2 | 1 to 10 | – | > 1 | > 10 | – | > 1
10 | CCC1C[C@@]2(C[C@@H](C#N)N(C(=O)[C@H](CC(C)C)N(C)C(=O)[C@H](C)NC(=O)C(F)(F)F)C2)C(=O)N1 (stereo partly drawn) [Compound 23] | < 0.02 | 0.1 to 1 | 0.1 to 1 | > 1 | > 10 | – | –
11 | CC(C)C[C@@H](C(=O)N1C[C@]2(CC(c3ccccc3)NC2=O)C[C@H]1C#N)N(C)C(=O)[C@H](C)NC(=O)C(F)(F)F (stereo partly drawn) [Compound 24] | < 0.02 | 1 to 10 | 0.1 to 1 | > 1 | > 10 | – | –
12 | CC(C)C[C@@H](C(=O)N1C[C@]2(C[C@H]1C#N)C(=O)Nc1cc(-c3ccccc3)nn12)N(C)C(=O)[C@H](C)NC(=O)C(F)(F)F [Compound 25, (S)—N—((S)-1-((3R,5'S)-5′-cyano-2-oxo-6-phenyl-1,2-dihydrospiro[imidazo[1,2-b]pyrazole-3,3′-pyrrolidin]-1′-yl)-4-methyl-1-oxopentan-2-yl)-N-methyl-2-(2,2,2-trifluoroacetamido)propanamide] | 0.02 to 0.2 | 0.1 to 1 | 0.1 to 1 | > 1 | > 10 | – | –
13 | CC(C)C[C@@H](C(=O)N1C[C@]2(C[C@H]1C#N)C(=O)Nc1cc(Br)nn12)N(C)C(=O)[C@H](C)NC(=O)C(F)(F)F [Compound 26, (2S)—N-[(2S)-1-[(3R,5'S)-6-bromo-5′-cyano-2-oxo-1H-spiro[pyrazolo[1,5-a]imidazole-3,3′-pyrrolidin]-1′-yl]-4-methyl-1-oxopentan-2-yl]-N-methyl-2-(2,2,2-trifluoroacetamido)propanamide] | 0.02 to 0.2 | 0.1 to 1 | – | > 1 | > 10 | – | > 1
14 | CC(C)C[C@@H](C(=O)N1C[C@@]2(C[C@H]1C#N)N=C(C(C)(C)C)NC2=O)N(C)C(=O)[C@H](C)NC(=O)C(F)(F)F [Compound 47] | 0.02 to 0.2 | 1 to 10 | 0.1 to 1 | > 1 | > 10 | – | –
15 | CC(C)C[C@@H](C(=O)N1C[C@@]2(C[C@H]1C#N)Oc1cc(F)c(F)cc1NC2=O)N(C)C(=O)[C@H](C)NC(=O)C(F)(F)F [Compound 48] | < 0.02 | 0.1 to 1 | 0.1 to 1 | > 1 | > 10 | – | –
16 | CC(C)C[C@@H](C(=O)N1C[C@@]2(C[C@H]1C#N)Oc1c(F)cc(F)cc1NC2=O)N(C)C(=O)[C@H](C)NC(=O)C(F)(F)F [Compound 49] | < 0.02 | 0.1 to 1 | 0.1 to 1 | > 1 | > 10 | – | –
17 | CN(C(=O)[C@H](CC1CC1)NC(=O)C(F)(F)F)[C@@H](CC1CC1)C(=O)N1C[C@@]2(C[C@H]1C#N)Oc1cc(F)ccc1NC2=O [Compound 50] | < 0.02 | < 0.1 | < 0.1 | > 1 | > 10 | – | –
18 | CC(C)C[C@@H](C(=O)N1C[C@@]2(CC1C#N)Oc1cc(F)cc(F)c1NC2=O)N(C)C(=O)[C@H](C)NC(=O)C(F)(F)F (stereo partly drawn) [Compound 51] | < 0.02 | 0.1 to 1 | 0.1 to 1 | > 1 | > 10 | – | –
19 | CN(C(=O)[C@H](CC1CC1)NC(=O)C(F)(F)F)[C@@H](CC1CC1)C(=O)N1C[C@@]2(C[C@H]1C#N)Oc1ccc(F)c(F)c1NC2=O [Compound 52] | < 0.02 | < 0.1 | < 0.1 | > 1 | > 10 | – | –
20 | CN(C(=O)[C@@H](NC(=O)C(F)(F)F)C(C)(C)C)[C@@H](CC1CC1)C(=O)N1C[C@@]2(C[C@H]1C#N)Oc1cc(F)cc(F)c1NC2=O [Compound 53] | < 0.02 | 0.1 to 1 | 0.1 to 1 | > 1 | > 10 | – | –
21 | CN(C(=O)[C@H](CC1CC1)NC(=O)C(F)(F)F)[C@@H](CC(C)(C)F)C(=O)N1C[C@@]2(CC1C#N)Oc1cc(F)cc(F)c1NC2=O (stereo partly drawn) [Compound 54] | < 0.02 | < 0.1 | 0.1 to 1 | > 1 | > 10 | – | –
22 | CN(C(=O)[C@H](CC1CC1)NC(=O)C(F)(F)F)[C@@H](CC1CC1)C(=O)N1C[C@@]2(C[C@H]1C#N)Oc1cc(F)cc(F)c1NC2=O [Compound 55] | < 0.02 | < 0.1 | < 0.1 | > 1 | > 10 | – | –
23 | CN(C(=O)[C@H](CC1CC1)NC(=O)C(F)(F)F)[C@@H](CC1CC1)C(=O)N1C[C@@]2(C[C@H]1C#N)Oc1cccc(F)c1NC2=O [Compound 56] | < 0.02 | < 0.1 | < 0.1 | > 1 | > 10 | – | –
24 | CN(C(=O)[C@H](CC1CC1)NC(=O)C(F)(F)F)[C@@H](CC1CC1)C(=O)N1C[C@@]2(C[C@H]1C#N)Oc1c(F)ccc(F)c1NC2=O [Compound 57] | < 0.02 | < 0.1 | < 0.1 | > 1 | > 10 | – | –
25 | CC(C)C[C@@H](C(=O)N1C[C@@]2(C[C@H]1C#N)Oc1cc(Cl)cc(F)c1NC2=O)N(C)C(=O)[C@H](C)NC(=O)C(F)(F)F [Compound 58] | < 0.02 | 0.1 to 1 | 0.1 to 1 | > 1 | > 10 | – | –
26 | CN(C(=O)[C@H](CC1CC1)NC(=O)C(F)(F)F)[C@@H](CC1CC1)C(=O)N1C[C@@]2(C[C@H]1C#N)Oc1cc(Cl)cc(F)c1NC2=O [Compound 59] | < 0.02 | < 0.1 | < 0.1 | > 1 | > 10 | – | –
27 | CN(C(=O)[C@H](CC1CC1)NC(=O)C(F)(F)F)[C@@H](CC1CC1)C(=O)N1C[C@@]2(C[C@H]1C#N)CC1(CC1)NC2=O [Compound 60] | < 0.02 | < 0.1 | < 0.1 | > 1 | > 10 | – | –
